Laboratory results: US20190062749A1, “SIRNA, PHARMACEUTICAL COMPOSITION AND CONJUGATE WHICH CONTAIN SIRNA, AND USES THEREOF” (priority 2015, published 2019)
Where two headings read alike, the source gives them in different places. Oligonucleotides are written 5' to 3', each unit as a sugar letter and its base; * is a phosphorothioate linkage, no mark a phosphodiester; rarer units and linkages stand in square brackets, end groups in braces. Plain capitals give the bases only. d = 2'-deoxy (DNA); m = 2'-O-methyl; r = 2'-OH (RNA); f = 2'-fluoro

What was measured:
[1] = Stability of siRNAs in human plasma in vitro (gel, ratio of the longest fragments RL); format: in vitro ADME
Procedure: The siRNAs (20 μM, 10 μl) obtained in Preparation Example 1 were incubated with 50% human plasma (HP) at 37° C. in vitro for a certain time and samples were taken therefrom. Specifically, 10 μl samples were taken at 0, 2, 4, 6, 8, 24 and 48 hours respectively and immediately snap frozen in liquid nitrogen, followed by cryopreservation at −80° C. for future use. 20 wt % non-denaturing polyacrylamide gel was formulated, and 10 μl 5-fold diluted above samples (dilution solution: 1×PBS buffer at pH 7.4) and 4 μl loading buffer (20 mM EDTA, 36 wt % glycerol, 0.06 wt % bromophenol blue) were mixed and then loaded into the gel to perform electrophoresis for about 60 minutes under 80 mA constant current. After electrophoresis finished, the gel was stained with 1× Sybr Gold dye (Invitrogen, Cat. 11494) for 15 minutes followed by imaging.
The ratio of the longest fragments remained after incubating the test siRNAs and control siRNAs with human plasma to the longest fragments of the siRNAs without the treatment of human plasma (i.e., the markers shown in FIG. 3) (also referred to as ratio of the longest fragments, RL) is calculated by reading the grayscale values quantitatively.

[2] = prior application CN102140461B; cited from earlier work
HBV gene = conditions: prior application CN102140461B; cited from earlier work

Substance | RL (ratio of the longest fragments) 0 h ([1]; 50% human plasma, 37° C., 0 h) [%] | RL (ratio of the longest fragments) 2 h ([1]; 50% human plasma, 37° C., 2 h) [%] | RL (ratio of the longest fragments) 4 h ([1]; 50% human plasma, 37° C., 4 h) [%] | RL (ratio of the longest fragments) 6 h ([1]; 50% human plasma, 37° C., 6 h) [%] | RL (ratio of the longest fragments) 8 h ([1]; 50% human plasma, 37° C., 8 h) [%] | RL (ratio of the longest fragments) 24 h ([1]; 50% human plasma, 37° C., 24 h) [%] | RL (ratio of the longest fragments) 48 h ([1]; 50% human plasma, 37° C., 48 h) [%] | RL (ratio of the longest fragments) 0 h [1] [%] | RL (ratio of the longest fragments) 2 h [1] [%] | RL (ratio of the longest fragments) 4 h [1] [%] | RL (ratio of the longest fragments) 6 h [1] [%] | RL (ratio of the longest fragments) 8 h [1] [%] | RL (ratio of the longest fragments) 24 h [1] [%] | RL (ratio of the longest fragments) 48 h [1] [%] | band position / full-length state on gel (FIG. 3) ([1]; 50% human plasma, up to 48 h) | stability in blood [2] | activity at cell level compared to unmodified siRNA CA1 (HBV gene)
X2M2(S++): sense CmCmUmUmGAGGCmAUmACmUmUmCmAAAdT-s-dT, antisense UfUmUfGAAGUfAUGCCUfCAAGGdT-s-dT (sense CCUUGAGGCAUACUUCAAAT; antisense UUUGAAGUAUGCCUCAAGGT; chemistry not fully specified) | 100.0 | 101.5 | 98.2 | 98.6 | 93.0 | 92.1 | 90.9 |  |  |  |  |  |  |  |  |  | 
14d: sense CmCmUmUmGAGGCmAUmACmUmUmCmAAAdTdT, antisense UfUmUfGAAGUfAUfGCCUCAAGGdTdT (sense mCmCmUmUrGrArGrGmCrAmUrAmCmUmUmCrArArAdTdT; antisense fUmUfUrGrArArGfUrAfUrGrCrCrUrCrArArGrGdTdT) | 100.0 | 94.6 | 90.0 | 85.6 | 86.0 | 78.0 | 84.6 |  |  |  |  |  |  |  |  |  | 
NC: negative control siRNA; sense UUCUCCGAACGUGUCACGUdTdT, antisense ACGUGACACGUUCGGAGAAdTdT (sense UUCUCCGAACGUGUCACGUTT; antisense ACGUGACACGUUCGGAGAATT; further chemistry not given here) [reference compound] |  |  |  |  |  |  |  | 100.0 | 83.9 | 69.7 | 58.4 | 52.6 | 36.2 | 26.0 |  |  | 
NC-pos: negative control siRNA; sense UmUmCmUmCCGAAmCGmUGmUmCmAmCGUdTdT, antisense AfCmGfUGACAfCGfUUCGfGAGAAdTdT (sense UUCUCCGAACGUGUCACGUTT; antisense ACGUGACACGUUCGGAGAATT; chemistry not fully specified) [reference compound] |  |  |  |  |  |  |  | 100.0 | 93.4 | 95.9 | 84.9 | 88.6 | 87.1 | 90.0 |  |  | 
NC-bas: negative control siRNA; sense UmUmCmUmCmCmGAACmGUmGUmCmACmGUmdTdT, antisense ACmGUfGACfACfGUfUfCfGGAGAAdTdT (sense UUCUCCGAACGUGUCACGUTT; antisense ACGUGACACGUUCGGAGAATT; chemistry not fully specified) [reference compound] |  |  |  |  |  |  |  | 100.0 | 95.1 | 89.8 | 86.8 | 85.3 | 91.1 | 90.8 |  |  | 
A4: siRNA of CN102140461B; sense CmCmUmUmGAGGCmAUmACmUmUmCmAAAdTdT, antisense UfUmUfGAAGUfAUfGCCUfCAAGGdTdT (sense CCUUGAGGCAUACUUCAAATT; antisense UUUGAAGUAUGCCUCAAGGTT; sense: DNA at T, 2'-O-methyl at CU, RNA at AG, backbone not given here; antisense: sugars from the 5' end fmfrrrrfrfrrrfrrrrrdd, backbone not given here) [reference compound] | 100.0 | 97.5 | 93.7 | 106.0 | 91.7 | 90.0 | 81.2 |  |  |  |  |  |  |  | band thereof significantly shifts downward gradually | increased stability in blood | substantially equal inhibitory activity as that of siRNA CA1
1d: sense CmCmUmUmGAGGCmAUmACmUmUmCmAAAdTdT, antisense UUmUfGAAGUfAUfGCCUfCAAGGdTdT (sense mCmCmUmUrGrArGrGmCrAmUrAmCmUmUmCrArArAdTdT; antisense rUmUfUrGrArArGfUrAfUrGrCrCfUrCrArArGrGdTdT) | 100.0 | 90.0 | 97.2 | 93.3 | 87.5 | 55.7 | 65.1 |  |  |  |  |  |  |  |  |  | 
2d: sense CmCmUmUmGAGGCmAUmACmUmUmCmAAAdTdT, antisense UfUUfGAAGUfAUfGCCUfCAAGGdTdT (sense mCmCmUmUrGrArGrGmCrAmUrAmCmUmUmCrArArAdTdT; antisense fUrUfUrGrArArGfUrAfUrGrCrCfUrCrArArGrGdTdT) | 100.0 | 97.6 | 88.2 | 82.2 | 84.5 | 82.1 | 78.4 |  |  |  |  |  |  |  |  |  | 
8d: sense CmCmUmUmGAGGCmAUmACmUmUmCmAAAdTdT, antisense UfUmUfGAAGUAUfGCCUfCAAGGdTdT (sense mCmCmUmUrGrArGrGmCrAmUrAmCmUmUmCrArArAdTdT; antisense fUmUfUrGrArArGrUrAfUrGrCrCfUrCrArArGrGdTdT) | 100.0 | 78.2 | 72.7 | 59.7 | 48.3 | 34.0 | 25.9 |  |  |  |  |  |  |  |  |  | 
X2M2(S−−): sense CmCmUmUmGAGGCmAUmACmUmUmCmAAAdTdT, antisense UfUmUfGAAGUfAUGCCUfCAAGGdTdT (as printed in the source, key not given here) | 100.0 | 111.3 | 97.5 | 90.2 | 96.1 | 109.1 | 93.9 |  |  |  |  |  |  |  |  |  | 
3d: sense CmCmUmUmGAGGCmAUmACmUmUmCmAAAdTdT, antisense UfUmUGAAGUfAUfGCCUfCAAGGdTdT (sense mCmCmUmUrGrArGrGmCrAmUrAmCmUmUmCrArArAdTdT; antisense fUmUrUrGrArArGfUrAfUrGrCrCfUrCrArArGrGdTdT) | 100.0 | 96.6 | 99.6 | 93.3 | 87.1 | 75.0 | 41.6 |  |  |  |  |  |  |  |  |  | 
